Reference: patent publication US4656166A, “Antibiotic compounds derived from cephalosporins, process for their production and pharmaceutical compositions” (Sanofi, priority 1983, dated 1987)
In brackets after ≈: the same amount, converted by molar mass.

Tests used:
Format in all cases: cell-based
Escherichia coli SOL 90 = test: MIC, in vitro dilution method, Escherichia coli SOL 90 (Table III); conditions: SOL90; Escherichia coli SOL 90; dilution method; read-out: MIC
Text: (§1) The products of the invention have been studied as regards their pharmacological properties and, more especially, bacteriostatic action. This has been determined in vitro by the dilution method, and the study was on Gram negative strains.
(§2) Results, expressed in minimum inhibiting concentrations (MIC-- μg/ml), are collected in the following table (Table III).

Citrobacter RL 49 = test: MIC, in vitro dilution method, Citrobacter RL 49 (Table III); conditions: RL49; Citrobacter RL 49; dilution method; read-out: MIC
Text: as §1, §2

[1] = system: Proteus vulgaris RL 99 bis; test: MIC, in vitro dilution method, Proteus vulgaris RL 99 bis (Table III); conditions: RL99BIS; Proteus vulgaris RL 99 bis; dilution method; read-out: MIC
Text: as §1, §2

Serratia RL 72 = test: MIC, in vitro dilution method, Serratia RL 72 (Table III); conditions: RL72
Text: as §1, §2

Klebsiella RO 30 = test: MIC, in vitro dilution method, Klebsiella RO 30 (Table III); conditions: RO30; Klebsiella RO 30; dilution method; read-out: MIC
Text: as §1, §2

Enterobacter RO 154 = test: MIC, in vitro dilution method, Enterobacter RO 154 (Table III); conditions: RO154; Enterobacter RO 154; dilution method; read-out: MIC
Text: as §1, §2

Pseudomonas RL 112 = test: MIC, in vitro dilution method, Pseudomonas RL 112 (Table III); conditions: RL112
Text: as §1, §2

Row | SMILES | MIC (Escherichia coli SOL 90) | MIC (Citrobacter RL 49) | MIC [1] | MIC (Serratia RL 72) | MIC (Klebsiella RO 30) | MIC (Enterobacter RO 154) | MIC (Pseudomonas RL 112)
1 | CNCc1ccc(C(=O)OCC2=C(C(=O)O)N3C(=O)C(NC(=O)/C(=N\OC4(C(=O)O)CCC4)c4csc(N)n4)C3[S+]([O-])C2)cc1 (stereo not shown) [42 464] | ≤ 0.125 µg/mL | ≤ 0.125 µg/mL | ≤ 0.125 µg/mL | 0.5 µg/mL (≈ 0.757 µM) | ≤ 0.125 µg/mL | ≤ 0.125 µg/mL | 4 µg/mL (≈ 6.05 µM)
2 | CC(C)(O/N=C(\C(=O)NC1C(=O)N2C(C(=O)O)=C(COC(=O)[C@@H](N)Cc3c[nH]cn3)C[S+]([O-])C12)c1csc(N)n1)C(=O)O (stereo partly shown) [41 889] | 1 µg/mL (≈ 1.57 µM) | 1 µg/mL (≈ 1.57 µM) | 0.5 µg/mL (≈ 0.783 µM) | 4 µg/mL (≈ 6.26 µM) | 1 µg/mL (≈ 1.57 µM) | 8 µg/mL (≈ 12.5 µM) | 8 µg/mL (≈ 12.5 µM)
3 | CC(C)(N)C(=O)OCC1=C(C(=O)O)N2C(=O)C(NC(=O)/C(=N\OC(C)(C)C(=O)O)c3csc(N)n3)C2[S+]([O-])C1 (stereo not shown) [41 858] | 2 µg/mL (≈ 3.41 µM) | 1 µg/mL (≈ 1.7 µM) | 0.5 µg/mL (≈ 0.852 µM) | 4 µg/mL (≈ 6.82 µM) | 0.5 µg/mL (≈ 0.852 µM) | 8 µg/mL (≈ 13.6 µM) | 8 µg/mL (≈ 13.6 µM)
4 | CC(C)(O/N=C(\C(=O)NC1C(=O)N2C(C(=O)O)=C(COC(=O)CC3CCCCN3)C[S+]([O-])C12)c1csc(N)n1)C(=O)O (stereo not shown) [42 371] | 0.5 µg/mL (≈ 0.798 µM) | 0.25 µg/mL (≈ 0.399 µM) | ≤ 0.125 µg/mL | 0.5 µg/mL (≈ 0.798 µM) | 0.25 µg/mL (≈ 0.399 µM) | 0.25 µg/mL (≈ 0.399 µM) | 8 µg/mL (≈ 12.8 µM)
5 | NCc1cccc(C(=O)OCC2=C(C(=O)O)N3C(=O)C(NC(=O)/C(=N\OC4(C(=O)O)CCC4)c4csc(N)n4)C3[S+]([O-])C2)c1 (stereo not shown) [42 462] | 0.25 µg/mL (≈ 0.387 µM) | ≤ 0.125 µg/mL | ≤ 0.125 µg/mL | 0.5 µg/mL (≈ 0.773 µM) | ≤ 0.125 µg/mL | ≤ 0.125 µg/mL | 4 µg/mL (≈ 6.19 µM)
6 | CC(ON=C(C(=O)NC1C(=O)N2C(C(=O)O)=C(CSC(=O)C3CCNCC3)C[S+]([O-])C12)c1csc(N)n1)C(=O)O (stereo not shown) [compound 42218] | 0.5 µg/mL (≈ 0.813 µM) | 0.25 µg/mL (≈ 0.407 µM) | 0.5 µg/mL (≈ 0.813 µM) | 2 µg/mL (≈ 3.25 µM) | 0.5 µg/mL (≈ 0.813 µM) | 0.5 µg/mL (≈ 0.813 µM) | 64 µg/mL (≈ 104 µM)
7 | CC(C)(O/N=C(\C(=O)NC1C(=O)N2C(C(=O)O)=C(COC(=O)[C@@H](N)CCCCN)C[S+]([O-])C12)c1csc(N)n1)C(=O)O (stereo partly shown) [41 888] | 2 µg/mL (≈ 3.18 µM) | 2 µg/mL (≈ 3.18 µM) | 1 µg/mL (≈ 1.59 µM) | 8 µg/mL (≈ 12.7 µM) | 1 µg/mL (≈ 1.59 µM) | 8 µg/mL (≈ 12.7 µM) | 8 µg/mL (≈ 12.7 µM)
8 | CNCCCCC(=O)OCC1=C(C(=O)O)N2C(=O)C(NC(=O)/C(=N\OC(C)(C)C(=O)O)c3csc(N)n3)C2[S+]([O-])C1 (stereo not shown) [42 029] | 0.25 µg/mL (≈ 0.407 µM) | 0.25 µg/mL (≈ 0.407 µM) | ≤ 0.12 µg/mL | 0.5 µg/mL (≈ 0.813 µM) | 0.25 µg/mL (≈ 0.407 µM) | 2 µg/mL (≈ 3.25 µM) | 8 µg/mL (≈ 13 µM)
9 | Nc1nc(C(=NOC2(C(=O)O)CCC2)C(=O)NC2C(=O)N3C(C(=O)O)=C(CSC(=O)C4CCNCC4)C[S+]([O-])C23)cs1 (stereo not shown) [compound 42219] | 0.5 µg/mL (≈ 0.78 µM) | ≤ 0.12 µg/mL | ≤ 0.12 µg/mL | 1 µg/mL (≈ 1.56 µM) | 0.5 µg/mL (≈ 0.78 µM) | 0.5 µg/mL (≈ 0.78 µM) | 4 µg/mL (≈ 6.24 µM)
10 | CSCC[C@H](N)C(=O)OCC1=C(C(=O)O)N2C(=O)C(NC(=O)/C(=N\OC(C)(C)C(=O)O)c3csc(N)n3)C2[S+]([O-])C1 (stereo partly shown) [41 887] | 2 µg/mL (≈ 3.16 µM) | 4 µg/mL (≈ 6.32 µM) | 0.25 µg/mL (≈ 0.395 µM) | 4 µg/mL (≈ 6.32 µM) | 0.5 µg/mL (≈ 0.79 µM) | 8 µg/mL (≈ 12.6 µM) | 8 µg/mL (≈ 12.6 µM)
11 | CC(C)(O/N=C(\C(=O)NC1C(=O)N2C(C(=O)O)=C(COC(=O)CC3CCCNC3)C[S+]([O-])C12)c1csc(N)n1)C(=O)O (stereo not shown) [42 372] | 0.25 µg/mL (≈ 0.399 µM) | ≤ 0.125 µg/mL | ≤ 0.125 µg/mL | 0.25 µg/mL (≈ 0.399 µM) | 0.25 µg/mL (≈ 0.399 µM) | ≤ 0.125 µg/mL | 4 µg/mL (≈ 6.38 µM)
12 | COc1cc(C(=O)OCC2=C(C(=O)O)N3C(=O)C(NC(=O)/C(=N\OC(C)(C)C(=O)O)c4csc(N)n4)C3[S+]([O-])C2)ccc1CN (stereo not shown) [42 461] | 0.25 µg/mL (≈ 0.376 µM) | ≤ 0.125 µg/mL | ≤ 0.125 µg/mL | 2 µg/mL (≈ 3.01 µM) | ≤ 0.125 µg/mL | ≤ 0.125 µg/mL | 8 µg/mL (≈ 12 µM)
13 | C[C@H](N)C(=O)OCC1=C(C(=O)O)N2C(=O)C(NC(=O)/C(=N\OC(C)(C)C(=O)O)c3csc(N)n3)C2[S+]([O-])C1 (stereo partly shown) [41 733] | 2 µg/mL (≈ 3.49 µM) | 2 µg/mL (≈ 3.49 µM) | 0.5 µg/mL (≈ 0.873 µM) | 8 µg/mL (≈ 14 µM) | 1 µg/mL (≈ 1.75 µM) | 1 µg/mL (≈ 1.75 µM) | 8 µg/mL (≈ 14 µM)
